The subject of this assay is S. cerevisiae Burl-1 ts mutant growth, BacTiter-Glo, 38.5C 24 h. Description: growth induction of Burl-1 ts yeast mutant, dose response, counter-screen for SUMOylation pathway inhibitor project, whole organism, S. cerevisiae, luminescence (AID 463199). For orientation: A counterscreen serves to expose hits that act by an unwanted route or on another target.

SMILES strings stand for the structures. Calls of active or inactive are those of the source.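 How the source made its calls: active means AC50, the dose giving half-maximal effect, exceeds a fixed cutoff for a compound that rescues yeast growth under heat; inactive means the rest, inconclusive results apart.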

Take `Cc1cccc(CS(=O)(=O)Cc2ccc(C(=O)NCC3CCCO3)o2)c1` (stereo unspecified): the AC50 was > 42 µM (inactive).
Next, `CN(C)c1ccc(CN(Cc2ccco2)C(=O)c2ccco2)cc1`: > 42 µM (inactive); `OCC1(Cc2cccc(Cl)c2)CCCN(Cc2ccc(F)c(F)c2)C1` (stereo unspecified): > 42 µM (inactive).
Next, `CC(OC(=O)c1cc(S(=O)(=O)N2CCOCC2)ccc1F)C(=O)NCc1ccc2c(c1)OCO2` (stereo unspecified): > 42 µM (inactive).
With `CS(=O)(=O)N(CC(=O)Nc1ccccc1C(=O)N1CCCC1)c1ccc2c(c1)OCO2` the figure was > 42 µM (inactive); with `O=C(Cn1cnc2ccccc2c1=O)c1ccc(OC(F)F)cc1`, > 42 µM (inactive).
Take `COCCCn1c2nc3ccccc3nc2c2c(=O)n(Cc3ccc(Cl)cc3)cnc21`: the AC50 was > 42 µM (inactive).
Next, `NC(=O)NC(=O)CSc1nc(C2CCCCC2)n(-c2ccccc2)n1`: > 42 µM (inactive); `C=CCNc1nnc(SC2CC(=O)N(c3ccc(OCCC)cc3)C2=O)s1` (stereo unspecified): > 42 µM (inactive); `CCN1C(=O)N(C)[C@@H](c2ccccc2)C(C(=O)OC)=C1C`: > 42 µM (inactive).
Next, `CN1C(=S)SC2CS(=O)(=O)CC21C` (stereo unspecified): > 21 µM (inactive); `COc1cc(CN2CCN(c3ncccn3)CC2)cc(OC)c1`: > 42 µM (inactive).
Next, `CCOC(=O)Cc1csc(NC(=O)NC2(C(F)(F)F)Oc3ccccc3O2)n1`: > 42 µM (inactive); `O=C(O)c1cccc(NC(=O)c2cccc(S(=O)(=O)Nc3cccc([N+](=O)[O-])c3)c2)c1`: > 42 µM (inactive); `Nn1c(SCc2cc([N+](=O)[O-])cc3c2OCOC3)nnc1-c1ccccn1`: > 42 µM (inactive).
Turning to `CC1CCCC(C)N1C(=O)CSc1nnnn1-c1cccc2c1CCCC2` (stereo unspecified), the AC50 was > 42 µM (inactive).
Turning to `Cc1ccc(C(=O)O)cc1[N+](=O)[O-]`, the AC50 is > 42 µM (inactive).
Next, `Fc1ccc2nc(C3CCN(Cc4nc(CC5CC5)no4)CC3)[nH]c2c1`: > 42 µM (inactive).
With `O=C(Oc1ccc2c(c1)OCO2)c1cccs1` the figure was > 42 µM (inactive); with `COc1ccc2[nH]c(C(=O)N/N=C/c3ccccc3OC)cc2c1`, > 42 µM (inactive); with `CCc1cc2c(=O)c(-c3ccc(F)cc3)c(C(F)(F)F)oc2cc1OCC(=O)O`, > 42 µM (inactive).
With `Cc1cc(-c2ccc(C(C)C)c(S(=O)(=O)N3CC(=O)Nc4ccccc43)c2)on1` the figure was > 42 µM (inactive).
As for `CCOC(=O)N1CCN(c2nnnn2-c2ccccc2)CC1`, the AC50 was > 42 µM (inactive).
Next, `CCn1c(SCC(=O)Nc2ccc(OCc3ccccc3)cc2)nnc1-c1ccco1`: > 42 µM (inactive); `Cn1c(CN2CCOCC2)nnc1SCC(=O)Nc1cc(Cl)ccc1Cl`: > 42 µM (inactive); `Cc1c(C(=O)N2CCCC2)c(S(=O)(=O)Nc2cccc(Br)c2)c(C)n1C`: > 42 µM (inactive).
With `O=C(CSc1nnc(-c2cccs2)n1-c1ccccc1)c1ccc2c(c1)OCCO2` the figure was > 42 µM (inactive).
For the compound `COc1ccccc1N1CCN(C(=O)c2sc3ncnc(N4CCN(c5ccccn5)CC4)c3c2C)CC1`, the AC50 was > 42 µM (inactive).
With `CC1CC(C)(C)N2C(=O)C3(Nc4ccccc4S3)c3cccc1c32` (stereo unspecified) the figure was > 42 µM (inactive); with `COc1ccc(-c2nnc(-c3cc4c(ccc5ccccc54)oc3=O)o2)cc1`, > 42 µM (inactive); with `O=C(O)c1cn(Cc2ccccn2)c(=O)c2ccccc12`, > 42 µM (inactive).
With `Clc1cnc(Oc2ccc(Oc3ncc(Cl)cc3Cl)cc2)c(Cl)c1` the figure was > 42 µM (inactive); with `O=C(O)CSc1ncnc2sc(-c3ccccc3)cc12`, > 42 µM (inactive).
Next, `CCc1ccccc1NC(=O)N[C@@H](C)C(=O)OC`: > 42 µM (inactive).
Turning to `COc1ccccc1CSc1ncc(-c2ccc([N+](=O)[O-])cc2)[nH]1`, the AC50 is > 42 µM (inactive).
With `Oc1c(Cl)cc(Cl)c(Cl)c1Cc1c(O)c(Cl)cc(Cl)c1Cl` the figure was > 42 µM (inactive).
Turning to `CC1(C)Cc2c(c(N3CCCC3)nc3sc4c(N5CCN(CCO)CC5)ncnc4c23)CO1`, the AC50 is > 42 µM (inactive).
For `COc1cc(-c2nnc(SCC#CCO)o2)cc(OC)c1OC`, the AC50 was > 42 µM (inactive).
With `O=C(CCc1nc2sc3c(c2c(=O)[nH]1)CCCC3)N1CCN(c2ccccc2)CC1` the figure was > 42 µM (inactive); with `O=C(OC1CCOC1=O)c1cccc(S(=O)(=O)Nc2ccc(F)cc2)c1` (stereo unspecified), > 42 µM (inactive).
Next, `CCCOC(=O)c1ccc(O)c(OC)c1`: > 42 µM (inactive); `O=C(Nc1ccc([N+](=O)[O-])cn1)C1CC1`: > 42 µM (inactive); `O=C(O)CCC(NC(=O)c1ccc(Cl)cc1)C(=O)O` (stereo unspecified): > 42 µM (inactive).
Take `COc1cc(NC(=O)CCN2CCN(Cc3ccccc3)CC2)cc(OC)c1`: the AC50 was > 42 µM (inactive).
In the case of `Cc1cccc2nc(COc3ccc4ccccc4c3Br)cn12`, the AC50 is > 42 µM (inactive).
With `Nc1nc(CSc2nnnn2-c2ccc(Cl)cc2)nc(N2CCOCC2)n1` the figure was > 42 µM (inactive).
Next, `CCN(CC1COc2ccccc2O1)C(=S)NCCCN(C)C` (stereo unspecified): > 42 µM (inactive).
With `CCNC(=O)NC(C(=O)OC)C12CC3CC(CC(C3)C1)C2` (stereo unspecified) the figure was > 42 µM (inactive); with `COCCNC(=O)C(=O)NCC1OCCN1C(=O)c1ccc(Cl)cc1` (stereo unspecified), > 42 µM (inactive).
For the compound `CCN1CCN(CC(=O)Nc2cccc(C)c2C)C(=O)C1=O`, the AC50 is > 42 µM (inactive).
As for `COc1ccc(OC(=O)c2ccc(Cl)cc2)c(C(C)=O)c1`, the AC50 is > 42 µM (inactive).
With `Cc1cc(NC(=O)/C=C/c2ccco2)ccc1NC(=O)c1ccccc1` the figure was > 42 µM (inactive); with `Oc1c(Cl)cc(Cl)cc1/C=N/c1nc(-c2ccc(Cl)cc2)cs1`, > 42 µM (inactive); with `N#Cc1ccc2[nH]c(CO)c(-c3ccccc3)c2c1`, > 42 µM (inactive).
With `CC[C@H]1CCCCc2ccccc2[C@@H](C(=O)C[C@@H](O)CC(C)=O)OC1=O` the figure was > 42 µM (inactive); with `CC(C)C(O)(C(=O)NNc1ccccc1)C(C)C`, > 42 µM (inactive).

Usually AC50 stands for the concentration giving half of the maximal activity seen.

Source of the values: PubChem BioAssay AID463199 (Broad Institute, 2010).
